Test results reported in patent US20150366836A1, “METHOD AND PHARMACEUTICAL COMPOSITION FOR TREATING COLORECTAL CANCER” (National Dong Hua University, priority 2014, published 2015).

Experiments:
Caco2 cells [1] = assay: MTT assay cell viability, Caco2 cells; assay type: cell-based
Procedure: (§1) Two cell lines were used in this study, Caco2 cells and HT-29 cells. Both of them are colorectal cancer cells. Caco2 cells and HT-29 cells were maintained in DMEM (or RPMI) supplemented with 20% or 10% fetal bovine serum (FBS; GIBCO), pH 7.4 at 37° C. with continuous circulation of 5% CO2 incubator. The medium was changed every 2 days and the cells were trypsinized using trypsin/EDTA when reaching 80%-90% confluence.
(§2) In this example, the effects of HCD, PG, and 5-FU on the viability of Caco2 cells and HT-29 cells were examined. The MTT assay was employed for this purpose. The MTT (3-(4-,5-dimethylthiazol-2-yl)-2,5-diphenyltetrazolium bromide) assay is a common colorimetric method in the field for cell viability analysis. MTT (yellow tetrazolium salt) is reduced to a purple formazan by living cells and detection to the purple formazan can be calculated as the cell viability.
(§3) Briefly, cells (Caco2 or HT-29) were seeded in 96-well plate (7×10^3 cell per well) and incubated overnight (37° C., 5% CO2).
(§4) On the other hand, in the pretreatment analysis, cells (Caco2 or HT-29) were seeded in 96-well plate (7×10^3 cell per well) and incubated overnight (37° C., 5% CO2). In according to the treatments listed in the Table 1, Cells were pre-treated by HCD or PG for 6, 12, 24, 36, or 48 hr and then were treated by 5-FU for additional 24 hr.

HT-29 cells [2] = assay: MTT assay cell viability, HT-29 cells; assay type: cell-based
Procedure: as §1, §2, §3, §4

Caco2 cells [3] = assay: Cell cycle analysis by flow cytometer (PI staining), Caco2 cells; assay type: cell-based
Procedure: (§5) The results of Example 2 in cell viability hinted the effects of HCD, PG, and 5-FU on arresting cell cycle. In this example, the phase of cell cycle of Caco2 and HT-29 cells after the treatment listed in Table 1 was determined by flow cytometer. Briefly, 7×10^4 cells per well were inoculated in 12-wells plate and incubated overnight at 37° C., 5% CO2. Then, cells were treated according to the treatment listed in Table 1 by indicated time period. After treatment, cells were harvested by trypsin and fixed with 70% ethanol at −20° C. for at least 3 hr. The cells were washed in cold PBS twice and then incubated with 1 mL (v/v) staining solution (20 μg/mL propidium iodide (PI), 0.1% Triton X-100, 0.2 mg/mL Rnase) at 37° C. for 30 minutes. Lastly, cells were analyzed by flow cytometer (Cytomics™ FC500, Backman, Fullerton, Calif., USA). Data from 10,000 cells were collected for each experimental group.

HT-29 cells [4] = assay: Cell cycle analysis by flow cytometer (PI staining), HT-29 cells; assay type: cell-based
Procedure: as §5

[5] = test system: mouse bearing inflammatory bowel disease (IBD), AOM/DSS induced; assay: Mouse model bearing IBD (AOM/DSS induced), body weight and H&E staining of intestine; assay type: in vivo, C57/BL6 mice
Procedure: The animal experiments were approved by the National Dong-Hwa University Animal Ethics Committee and the experimental protocols were used according to the “Guide for the Care and Use of Laboratory Animals” of National Dong-Hwa University. On day 0, C57/BL6 mice (6-8 weeks old) were weighted and injected (intraperitoneal; i.p.) with 10 mg/kg body weight of azoxymethane (AOM) and then fed with 2% Dextran sodium sulfate solution (DSS solution) via water every day for 7 days. On day 8, the 2% DSS solution was changed to normal water for another 7 days. The cycle of DSS solution and water was repeated and the induction procedure was completed on day 35.
After the establishment of IBD in the experimental mice (on day 35), the mice were injected (i.p.) with 5-FU (15 mg/kg body weight) or HCD (0.64, 1.6, or 6.4 mg/kg body weight) once every three days for additional 30 days. Then, the mice were sacrificed. The colon, spleen, liver, and kidney thereof were immediately removed, observed, and further examined by H&E staining.

- IC50 (Caco2 cells [1]; Caco2 cells, 48 hr treatment): 5 µM
- IC50 (HT-29 cells [2]; HT-29 cells, 36 hr treatment): 5 µM
- G2/M phase after pre-treatment then 5-FU (in words) (Caco2 cells [3]; Caco2, 12 and 24 hr pretreatment of 1 or 2 μM, then 5-FU): decreased
SMILES: CC1=CCCC2C1(C)CCC(C)C2(C)CCC1=CC(=O)OC1O (stereo not drawn) [HCD, 16-hydroxy-cleroda-3,13-dine-15,16-olide]
- effect of pre-treating on efficacy of 5-FU in the subsequent treatment (MTT) (Caco2 cells [1]; Caco2, pre-treatment 6-48 hr, then 5-FU 2 μM 24 hr): significantly enhanced the efficacy of 5-FU
- effect of pre-treating on efficacy of 5-FU in the subsequent treatment (MTT) (HT-29 cells [2]; HT-29, pre-treatment 6-48 hr, then 5-FU 2 μM 24 hr): significantly enhanced the efficacy of 5-FU
- cell cycle arrest at sub-G1 phase vs control (in words) (Caco2 cells [3]; Caco2): increased cell cycle arrest at sub-G1 phase
- G0/G1 (%) (Caco2 cells [3]; Caco2, 0.5 μM, 36 hr): 43.8 ± 3.81%
- G2/M (%) (Caco2 cells [3]; Caco2, 0.5 μM, 36 hr): 20.37 ± 4.24%
- S (%) (Caco2 cells [3]; Caco2, 0.5 μM, 36 hr): 17.3 ± 0.44%
- Sub G1 (%) (Caco2 cells [3]; Caco2, 0.5 μM, 36 hr): 14.4 ± 1.73%
- G0/G1 (%) (Caco2 cells [3]; Caco2, 0.5 μM, 48 hr): 44.13 ± 3.26%
- G2/M (%) (Caco2 cells [3]; Caco2, 0.5 μM, 48 hr): 21.2 ± 2.46%
- S (%) (Caco2 cells [3]; Caco2, 0.5 μM, 48 hr): 15.93 ± 0.9%
- Sub G1 (%) (Caco2 cells [3]; Caco2, 0.5 μM, 48 hr): 14.47 ± 5.05%
- G0/G1 (%) (Caco2 cells [3]; Caco2, 2 μM, 36 hr): 29.73 ± 4.22 %
- G2/M (%) (Caco2 cells [3]; Caco2, 2 μM, 36 hr): 23.73 ± 3.91%
- S (%) (Caco2 cells [3]; Caco2, 2 μM, 36 hr): 13.03 ± 0.5%
- Sub G1 (%) (Caco2 cells [3]; Caco2, 2 μM, 36 hr): 28.8 ± 4.2 %
- G0/G1 (%) (Caco2 cells [3]; Caco2, 2 μM, 48 hr): 25.73 ± 4.63%
- G2/M (%) (Caco2 cells [3]; Caco2, 2 μM, 48 hr): 22.03 ± 2.11%
- S (%) (Caco2 cells [3]; Caco2, 2 μM, 48 hr): 11.63 ± 1.08%
- Sub G1 (%) (Caco2 cells [3]; Caco2, 2 μM, 48 hr): 36.17 ± 7.48 %
- G0/G1 (%) (Caco2 cells [3]; Caco2, 5 μM, 36 hr): 19.4 ± 1.82 %
- G2/M (%) (Caco2 cells [3]; Caco2, 5 μM, 36 hr): 14.77 ± 0.8%
- S (%) (Caco2 cells [3]; Caco2, 5 μM, 36 hr): 9.9 ± 0.98 %
- Sub G1 (%) (Caco2 cells [3]; Caco2, 5 μM, 36 hr): 51.77 ± 1.65 %
- G0/G1 (%) (Caco2 cells [3]; Caco2, 5 μM, 48 hr): 15.67 ± 6.25 %
- G2/M (%) (Caco2 cells [3]; Caco2, 5 μM, 48 hr): 12.9 ± 0.87%
- S (%) (Caco2 cells [3]; Caco2, 5 μM, 48 hr): 9.87 ± 0.55%
- Sub G1 (%) (Caco2 cells [3]; Caco2, 5 μM, 48 hr): 54.2 ± 0.62 %
- cell cycle arrest at sub-G1 phase vs control (in words) (HT-29 cells [4]; HT-29): increased cell cycle arrest at sub-G1 phase
- G0/G1 (%) (HT-29 cells [4]; HT-29, 0.5 μM, 24 hr): 82.9 ± 0.849 %
- G2/M (%) (HT-29 cells [4]; HT-29, 0.5 μM, 24 hr): 8.2 ± 0 %
- S (%) (HT-29 cells [4]; HT-29, 0.5 μM, 24 hr): 3.3 ± 0.424 %
- Sub G1 (%) (HT-29 cells [4]; HT-29, 0.5 μM, 24 hr): 4.35 ± 0.495%
- G0/G1 (%) (HT-29 cells [4]; HT-29, 0.5 μM, 36 hr): 59.25 ± 0.54%
- G2/M (%) (HT-29 cells [4]; HT-29, 0.5 μM, 36 hr): 14.25 ± 1.01 %
- S (%) (HT-29 cells [4]; HT-29, 0.5 μM, 36 hr): 15.85 ± 1.68%
- Sub G1 (%) (HT-29 cells [4]; HT-29, 0.5 μM, 36 hr): 7.7 ± 0.81%
- G0/G1 (%) (HT-29 cells [4]; HT-29, 2 μM, 24 hr): 33.9 ± 1.414 %
- G2/M (%) (HT-29 cells [4]; HT-29, 2 μM, 24 hr): 22 ± 1.414%
- S (%) (HT-29 cells [4]; HT-29, 2 μM, 24 hr): 17.95 ± 0.212%
- Sub G1 (%) (HT-29 cells [4]; HT-29, 2 μM, 24 hr): 20.7 ± 0.707 %
- G0/G1 (%) (HT-29 cells [4]; HT-29, 2 μM, 36 hr): 35.95 ± 1.34 %
- G2/M (%) (HT-29 cells [4]; HT-29, 2 μM, 36 hr): 9.05 ± 1.485 %
- S (%) (HT-29 cells [4]; HT-29, 2 μM, 36 hr): 7.8 ± 0.14 %
- Sub G1 (%) (HT-29 cells [4]; HT-29, 2 μM, 36 hr): 43.95 ± 3.89 %
- G0/G1 (%) (HT-29 cells [4]; HT-29, 5 μM, 24 hr): 27.5 ± 4.808%
- G2/M (%) (HT-29 cells [4]; HT-29, 5 μM, 24 hr): 23.5 ± 2.97%
- S (%) (HT-29 cells [4]; HT-29, 5 μM, 24 hr): 15.1 ± 2.546%
- Sub G1 (%) (HT-29 cells [4]; HT-29, 5 μM, 24 hr): 22.95 ± 7.99 %
- G0/G1 (%) (HT-29 cells [4]; HT-29, 5 μM, 36 hr): 16.4 ± 4.95 %
- G2/M (%) (HT-29 cells [4]; HT-29, 5 μM, 36 hr): 11.15 ± 1.20 %
- S (%) (HT-29 cells [4]; HT-29, 5 μM, 36 hr): 7.5 ± 1.13 %
- Sub G1 (%) (HT-29 cells [4]; HT-29, 5 μM, 36 hr): 62 ± 6.93 %
- cell cycle phases after pre-treatment then 5-FU (in words) (HT-29 cells [4]; HT-29, pre-treatment, then 5-FU): increase of sub G1 phase and decrease of G2/M phase
- intestine villus arrangement (H&E staining) ([5]; 0.64 mg/kg body weight i.p.): irregular arrangement of villus
- lymph node (H&E staining) ([5]; 0.64 mg/kg body weight i.p.): not infiltrated into muscle mucosa layer
- body weight ([5]; 0.64 mg/kg body weight i.p. once every three days, 30 days): initially reduced
- intestine villus arrangement (H&E staining) ([5]; 1.6 mg/kg body weight i.p.): arranged in neat rows nearly as seen in the control mice
- lymph node (H&E staining) ([5]; 1.6 mg/kg body weight i.p.): not infiltrated into muscle mucosa layer
- intestine villus arrangement (H&E staining) ([5]; 6.4 mg/kg body weight i.p.): arranged in neat rows nearly as seen in the control mice
- lymph node (H&E staining) ([5]; 6.4 mg/kg body weight i.p.): not infiltrated into muscle mucosa layer
